# Results taken from patent US5679787A, “Process for isomerization of compound of aldose structure into compound of ketose structure, and isomerization agent or accelerator used therein” (priority 1992, dated 1997).
# How the values were obtained:
# [1] = Toxicity, LD50 on oral administration to rats; settings: rat, in vivo, orally administered to rats
# Source text: (§1) The organogermanium compound used in the present invention has very low toxicity.
# [2] = Isomerization without enzyme (Example 3), maltose; settings: remark (3): reaction time 6 h, initial pH 10.0-11.0
# [3] = Isomerization test at pH 10 (Example 4), maltose; settings: pH 10 with aqueous sodium hydroxide, 80° C., 3 hours; blank 12.59
# Description: (§2) The same isomerization test as in Example 2 was conducted with slight modifications.
# (§3) That is, 200 μl of one of various saccharide solutions and 200 μl of one of various organogermanium compound solutions were placed in a small test tube. The mixture was adjusted to pH 10 with an aqueous sodium hydroxide solution, after which the tube was placed in a water bath of 80° C. for a reaction. 3 hours later, the reaction was terminated and the amount of each saccharide isomerized was determined by high-performance liquid chromatography using 7A (a column) manufactured by Shimadzu Corp.
# [4] = Isomerization without enzyme (Example 3), xylose; settings: remark (2): reaction time 6 h, initial pH 10.0-10.6
# Description: [The procedure below names another target; the source says it served here with some conditions changed.] (§4) 200 μl of the 14% or 28% glucose solution and 200 μl of the organogermanium compound solution (pH 8.00 or 8.53) were placed in a small test tube. Also, 200 μl of the 14% or 28% glucose solution and 200 μl of the weakly alkaline electrolytic water were placed in a small test tube. Each test tube was thoroughly shaken and then placed in a water bath of 80° C. to give rise to a reaction. 1-3 hours later, 50 μl of the reaction mixture was added to 50 μl of 0.5N HClO4 to terminate the reaction. Thereafter, the mixture was diluted 100-fold with deionized water to determine the amount of formed fructose and the amount of residual glucose by high-performance liquid chromatography using 7A (a column) manufactured by Shimadzu Corp.
# Other compounds represented by formula (I) were subjected to 3-hour isomerization in the same manner as in Example 2.
# [5] = Isomerization test at pH 10 (Example 4), galactose; settings: pH 10 with aqueous sodium hydroxide, 80° C., 3 hours; blank 7.60
# Description: as §2, §3
# [6] = Isomerization without enzyme (Example 3), glucose; settings: remark (1): initial pH 8.0-8.53
# Description: as §4, with “1-3 hours later, 50 μl of the reaction mixture was added to 50 μl of 0.5N HClO4 to terminate the reaction.” left out, “Corp. […]” for “Corp.”
# [7] = Isomerization without enzyme (Example 3), arabinose; settings: remark (2):, initial pH 10.0-10.6
# [8] = Isomerization test at pH 10 (Example 4), arabinose; settings: pH 10 with aqueous sodium hydroxide, 80° C., 3 hours; blank 2.75
# Description: as §2, §3
# [9] = Isomerization without enzyme (Example 3), mannose; settings: remark (2): reaction time 6 h, initial pH 10.0-10.6
# [10] = Isomerization without enzyme (Example 3), lactose; settings: remark (3): reaction time 6 h, initial pH 10.0-11.0
# glucose isomerase = assay: Enzymatic isomerization of glucose into fructose in presence of organogermanium compound (Example 1); format: biochemical, Streptomyces griseofuscus S-41; settings: 60° C., pH 8.0, substrate solution 40% glucose and 1.2M organogermanium compound, blank 50%
# Description: A solution containing 40% glucose and 1.2M organogermanium compound was prepared according to the following procedure. 0.8 g of anhydrous glucose was dissolved in 0.8 ml of deionized water. To the solution was added, in small portions, 0.407 g of the organogermanium compound (1) as an isomerization accelerator of the present invention [a compound represented by formula (II) wherein n=1, R1 =R2 =R3 and X1 =OH] while the pH of the solution was maintained at very weak alkalinity, to completely dissolve the compound in the solution. Thereto was added 4.9 mg of magnesium sulfate, and the pH of the resulting mixture was adjusted to 8.0. Then, deionized water was added to make the total volume 2.0 ml, whereby a substrate solution was prepared.
# Two other substrate solutions containing the organogermanium compounds (18) [a compound represented by formula (II) wherein n=1, R1 =R2 =H, R3 =NH2 and X1 =OH] and (23) [a compound represented by formula (II) wherein n=1, R1 =H, R2 =C6 H5, R3 =NH2 and X1 =OH], respectively, were prepared in the same manner as above except that the organogermanium compounds (18) and (23) were used in amounts of 0.443 g and 0.638 g, respectively (these amounts corresponded to 1.2M of germanium).
# An isomerization enzyme (glucose isomerase) extracted from the cells of Streptomyces griseofuscus S-41 was purified according to a known method using an ion exchange column, a gel filtration column or the like, until a single band was obtained electrophoretically. The resulting purified enzyme was used as a standard enzyme.
# In a small test tube were placed 0.7 ml of the above substrate solution, 0.1 ml of a 200 mM MOPS buffer solution (pH 8.0) and 0.2 ml of a solution containing the above-prepared standard enzyme (5.69 mg/ml). […] The amount of formed fructose in the microvial was determined by high-performance liquid chromatography using a column [LC7A, SCR-101 (N) manufactured by Shimadzu Corp.] to examine the change with time, of ratio of isomerization of glucose into fructose.
# [11] = Isomerization test at pH 10 (Example 4), ribose; settings: pH 10 with aqueous sodium hydroxide, 80° C., 3 hours; blank 2.89
# Description: as §2, §3
# [12] = Isomerization test at pH 10 (Example 4), mannose; settings: pH 10 with aqueous sodium hydroxide, 80° C., 3 hours; blank 12.48
# Description: as §2, §3
# [13] = Isomerization test at pH 10 (Example 4), xylose; settings: pH 10 with aqueous sodium hydroxide, 80° C., 3 hours; blank 5.59
# Description: as §2, §3
# [14] = Toxicity, LD50 on oral administration to mice; settings: mouse, in vivo, orally administered to mice
# Source text: as §1
# [15] = Isomerization without enzyme (Example 3), ribose; settings: NaOH; remark (2): reaction time 6 h, initial pH 10.0-10.6; blank 3.9-19.5%
# [16] = electrolytic water, blank 0-0.4%
# [17] = electrolytic water, blank 0.4-1.2%
structure (smiles),measurement,setting,value
O=C(O)C[CH2][Ge](=[O])[O][Ge](=[O])[CH2]CC(=O)O [Compound 1],LD50,[1],≥ 10000 mg/kg
same,Isomerization ratio Maltose NaOH,"[2]; NaOH, blank 34.0-38.6%",68.7%
same,Isomerization ratio Maltose Electrolytic water,[2]; [16],43.2%
same,Isomerization (%) Maltose,[3],78.91%
same,Isomerization ratio Xylose NaOH,"[4]; NaOH, blank 3.9-19.5%",30.3%
same,Isomerization ratio Xylose Electrolytic water,[4]; [17],19.6%
same,Isomerization (%) Galactose,[5],38.67%
same,Isomerization ratio Glucose NaOH,"[6]; NaOH, blank 32.3%",98.9%
same,Isomerization ratio Glucose Electrolytic water,"[6]; electrolytic water, blank 2.1-3.1%",94.7%
same,Isomerization ratio Arabinose NaOH,"[7]; NaOH, blank 3.9-19.5%",22.6%
same,Isomerization ratio Arabinose Electrolytic water,[7]; [17],12.6%
same,Isomerization (%) Arabinose,[8],20.87%
same,Isomerization ratio Mannose NaOH,"[9]; NaOH, blank 3.9-19.5%",24.3%
same,Isomerization ratio Mannose Electrolytic water,[9]; [17],13.1%
same,Isomerization ratio Lactose NaOH,"[10]; NaOH, blank 34.0-38.6%",70.3%
same,Isomerization ratio Lactose Electrolytic water,[10]; [16],58.3%
same,isomerization ratio in equilibrium,glucose isomerase,75%
same,Isomerization (%) Ribose,[11],27.76%
same,Isomerization (%) Mannose,[12],37.23%
same,Isomerization (%) Xylose,[13],40.66%
same,LD50,[14],≥ 6000 mg/kg
same,Isomerization ratio Ribose NaOH,[15],44.7%
